Experimental data published in article PMC5059724, “Purification and characterization of a novel phloretin-2′-O-glycosyltransferase favoring phloridzin biosynthesis” (Scientific Reports, 2016).

Legend:
[1] = biological target: MdP2′GT (Malus domestica, UniProt A0A0X9XIE3); test: Effects of metal ions and other compounds on purified MdP2′GT activity; type: biochemical, Malus x domestica; design: key to IC50: ND: no effects detected at selected concentrations; Activator: additions increased MdP2′GT activity at selected concentrations; conditions: for Effect of co-solvent on enzyme activity: 20% co-solvent
[2] = biological target: T1, MdP2′GT (Malus domestica, UniProt A0A0X9XIE3); test: Inhibition of phloridzin formation by purified MdP2′GT from 270 uM UDPG and 20 uM phloretin, 50 mM Tris/HCl pH 7.5, 5 mM DTT, 30 °C, 30 min, product quantified by HPLC-DAD.; type: biochemical
T1 construct: gene P2'GT
T1 sequence (A0A0X9XIE3 1-483): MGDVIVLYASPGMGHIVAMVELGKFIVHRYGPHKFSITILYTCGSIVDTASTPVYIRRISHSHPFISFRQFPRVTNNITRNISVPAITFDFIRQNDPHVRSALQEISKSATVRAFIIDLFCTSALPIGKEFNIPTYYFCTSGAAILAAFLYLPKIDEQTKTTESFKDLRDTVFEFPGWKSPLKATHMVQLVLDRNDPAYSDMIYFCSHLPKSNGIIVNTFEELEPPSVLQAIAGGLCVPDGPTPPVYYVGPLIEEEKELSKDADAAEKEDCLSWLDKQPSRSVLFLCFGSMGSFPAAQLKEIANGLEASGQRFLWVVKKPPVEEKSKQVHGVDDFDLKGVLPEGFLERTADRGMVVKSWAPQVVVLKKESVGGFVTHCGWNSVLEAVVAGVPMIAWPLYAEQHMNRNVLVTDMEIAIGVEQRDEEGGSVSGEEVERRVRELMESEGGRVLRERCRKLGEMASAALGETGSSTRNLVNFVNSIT

[3] = system: T2, UGT71A15; test: Literature Km for 2′-OH glycosylation of phloretin with the UDPG/phloretin combination, quoted in the comparison table.; type: biochemical; conditions: read-out: Km (μM), reported P2′GTs; cited from earlier work
T2 construct: literature enzyme, MW 52 kDa
Excerpt: (§1) Table 5 Enzyme characters and Kinetic parameters of MdP2′GT and reported P2′GTs. | Km (μM), reported P2′GTs

[4] = system: T3, UGT88F1; test: as above; type: biochemical; conditions: read-out: Km (μM), reported P2′GTs; cited from earlier work
T3 construct: literature enzyme, MW 59 kDa
Excerpt: as §1

[5] = biological target: Phloretin-2′-O-glycosyltransferase of Malus x domestica (MdP2′GT) (Malus x domestica); test: SEC; Sephacryl S-300 column, 5 mg/ml purified MdP2′GT, buffer D (50 mM Tris-HCl pH 7.5, 200 mM NaCl, 5 mM DTT), calibrated with five marker proteins; native protein and protein deglycosylated with PNGase F or Endo H under native conditions; mass confirmed by MALDI-TOF
[6] = 0.5 h, pH 7.5, addition at 5 mM, compared to a control in which none is added, read-out: Relative activity
[7] = addition at 5 mM, compared to a control in which none is added
[8] = addition at 0.5 mM, compared to a control in which none is added
[9] = concentration of inhibitor required to reduce the original MdP2′GT activity by 50%, read-out: IC50
[10] = concentration of inhibitor required to reduce the original MdP2′GT activity by 50%

O[C@@H](CS)[C@@H](O)CS (racemic) [Dithiothreitol]
activity at 5000 µM [1, 6]: 99.2 ± 1.43%
Relative activity [1, 7]: No obvious effects

O=c1ccn([C@@H]2O[C@H](CO[P@@](=O)(O)O[P@@](=O)(O)OP(=O)(O)O)[C@@H](O)[C@H]2O)c(=O)[nH]1 (stereo in doubt) [UTP, uridine triphosphate]
activity at 5000 µM [1, 6]: 3.05 ± 0.26%

O=C(CCc1ccc(O)c(O)c1)c1c(O)cc(O)cc1O[C@@H]1O[C@H](CO)[C@@H](O)[C@H](O)[C@H]1O [3-hydroxyphloridzin, 3-hydroxyphloridzin]
Relative activity [1, 7]: 15.65 ± 0.58%

O=C(CCc1ccc(O)c(O)c1)c1c(O)cc(O)cc1O[C@@H]1O[C@H](CO)[C@@H](O)[C@H](O)[C@H]1O [3-hydroxyphloridzin]
IC50 ([2]; read-out: IC50/): 2500 ± 200 µM

NCCc1ccc(S(=O)(=O)F)cc1 [AEBSF, 4-(2-Aminoethyl) benzenesulfonyl fluoride]
Relative activity [1, 8]: No obvious effects
Relative activity ([1]; addition at 0.5 mM, compared to a control in which none is added, 30 min, 500 µM): 99.51 ± 2.36%

[Cl][Al]([Cl])[Cl] [AlCl3]
Relative activity [1, 7]: 67.81 ± 1.03%
Relative activity ([1]; addition at 5 mM, compared to a control in which none is added, listed as Al^3+): partially inhibited
IC50 [1, 9]: 8000 ± 500 µM

[Ba+2].[Cl-].[Cl-] [BaCl2]
Relative activity [1, 8]: negligibly affected
Relative activity [1, 7]: 99.03 ± 2.54%

[Ca+2].[Cl-].[Cl-] [CaCl2]
Relative activity [1, 7]: 54.21 ± 1.05%
Relative activity ([1]; addition at 5 mM, compared to a control in which none is added, listed as Ca^2+): partially inhibited
IC50 [1, 9]: 5500 ± 120 µM

[Cl-].[Cl-].[Co+2] [CoCl2]
IC50 ([1]; read-out: IC50): 50 ± 10 µM

[Cl][Cu][Cl] [CuCl2]
Relative activity [1, 7]: 0.00 ± 0.00%
Relative activity ([1]; addition at 5 mM, compared to a control in which none is added, listed as Cu^2+): completely inhibited
IC50 [1, 9]: 10 ± 10 µM

C[S+](C)[O-] [Dimethyl sulfoxide]
Effect of co-solvent on enzyme activity [1]: no effects
Relative activity ([1]; addition at 704 mM, compared to a control in which none is added): 99.54 ± 1.40%

[Cl][Fe]([Cl])[Cl] [FeCl3]
IC50 [1, 9]: 6500 ± 230 µM

O=S(=O)([O-])[O-].[Fe+2] [FeSO4]
Relative activity [1, 7]: 119.43 ± 3.61%
IC50 [1, 10]: Activator

OCC(O)CO [Glycerol]
activity at 686000 µM ([1]; 0.5 h, pH 7.5, addition at 686 mM (text: 5% glycerol), compared to a control in which none is added, read-out: Relative activity): 98.1 ± 2.15%
Relative activity ([1]; addition at 686 mM (text: 5% glycerol), compared to a control in which none is added): No obvious effects

[Cl-].[K+] [KCl]
Relative activity [1, 8]: negligibly affected
Relative activity [1, 7]: 99.58 ± 2.31%

CO [Methanol]
Effect of co-solvent on enzyme activity [1]: no effects
Relative activity ([1]; addition at 1236 mM, compared to a control in which none is added): 99.23 ± 1.41%

[Cl-].[Cl-].[Mg+2] [MgCl2]
Relative activity ([1]; addition at 2 mM, compared to a control in which none is added): 130.35 ± 3.53%
Relative activity ([1]; addition at 2 mM, compared to a control in which none is added, listed as Mg^2+): 130%
IC50 [1, 10]: Activator

O=S(=O)([O-])[O-].[Mn+2] [MnSO4]
Relative activity [1, 7]: 47.41 ± 1.13%
Relative activity ([1]; addition at 5 mM, compared to a control in which none is added, listed as Mn^2+): partially inhibited
IC50 [1, 9]: 4500 ± 110 µM

CCN1C(=O)C=CC1=O [N-Ethylmaleimide]
activity at 1000 µM ([1]; 0.5 h, pH 7.5, addition at 1 mM, compared to a control in which none is added, read-out: Relative activity): 20.5 ± 1.08%
Relative activity ([1]; addition at 1 mM, compared to a control in which none is added): strong inhibition
IC50 [1, 9]: 280 ± 10 µM

[Cl-].[Na+] [NaCl, Sodium chloride]
Relative activity ([1]; addition at 500 mM, compared to a control in which none is added): 100 ± 1.00%
Relative activity ([1]; addition at 500 mM, compared to a control in which none is added, listed as Sodium chloride): no obvious inhibitory effects

[Cl][Ni][Cl] [NiCl2]
Relative activity [1, 8]: negligibly affected
Relative activity [1, 7]: 98.26 ± 2.08%

O=C(CCc1ccc(O)cc1)c1c(O)cc(O)cc1O [Phloretin, phloretin]
Km [3]: 82 µM
Km [4]: 0.62 µM

O=C(CCc1ccc(O)cc1)c1c(O)cc(O[C@@H]2O[C@H](CO)[C@@H](O)[C@H](O)[C@H]2O)cc1O [Trilobatin, trilobatin]
IC50 ([2]; read-out: IC50/): 3000 ± 210 µM

O=C(CCc1ccc(O)cc1)c1c(O)cc(O[C@@H]2O[C@H](CO)[C@@H](O)[C@H](O)[C@H]2O)cc1O [Trilobatin]
Relative activity [1, 7]: 21.70 ± 1.15%

O=c1ccn([C@@H]2O[C@H](COP(=O)(O)OP(=O)(O)O)[C@@H](O)[C@H]2O)c(=O)[nH]1 [UDP, uridine diphosphate]
IC50 ([2]; read-out: IC50/): 100 ± 10 µM

O=c1ccn([C@@H]2O[C@H](COP(=O)(O)O)[C@@H](O)[C@H]2O)c(=O)[nH]1 [UMP, uridine monophosphate]
Relative activity [1, 7]: 38.25 ± 1.07%
IC50 ([2]; read-out: IC50/): 4000 ± 130 µM

O=c1ccn([C@@H]2O[C@H](COP(=O)(O)OP(=O)(O)OP(=O)(O)O)[C@@H](O)[C@H]2O)c(=O)[nH]1 [UTP, uridine triphosphate]
IC50 [1, 9]: 2500 ± 100 µM

O=c1ccn([C@@H]2O[C@H](CO)[C@@H](O)[C@H]2O)c(=O)[nH]1 [Uridine]
activity at 5000 µM [1, 6]: 98.2 ± 2.12%

O=C(O)c1cc[c]([Hg+])cc1 [p-hydroxymercuribenzoate, p-hydroxymercuribenzoate (PHMB)]
IC50 [2]: 240 ± 70 µM

OCCS [β-mercaptoethanol]
Relative activity [1, 7]: 99.02 ± 1.47%
Relative activity ([1]; addition at 5 mM, compared to a control in which none is added, listed as β-ME): No obvious effects

Phloretin-2′-O-glycosyltransferase of Malus x domestica (MdP2′GT) (enzyme)
stoichiometry N [5]: 2

p-hydroxymercuribenzoate
IC50 [1, 9]: 240 ± 70 µM
